Reference: patent publication US20120157547A1, “COMPOSITIONS AND APPLICATIONS OF CAROTENOIDS OF IMPROVED ABSORPTION AND BIOAVAILABILITY” (priority 2010, published 2012)
Values joined by “and” are separate entries in the source; they are usually repeats but may differ in a detail not shown here. Equal values may be shown once.

Experiments:
[1] = Rate of increase in MPOD (Macular Pigment Optical Density) during 24 weeks of daily capsule ingestion; format: in vivo; settings: 20 mg daily capsule
Method: The evaluation was carried out over a period of 24 weeks with three (3) groups of subjects that ingested daily one gelatin capsule containing the following: • The first group ingested a capsule containing a dispersion of 20 mg of Micro-Mic™ in vegetable oil. • The second group ingested a gelatin capsule containing a dispersion of 20 mg of commercial crystalline Lutein dispersed in vegetable oil. • The third group ingested a gelatin capsule containing only vegetable oil (placebo). The three gelatin capsules were all the same color (dark brown).
Rate of Increase in MPOD in Absorbance Units Per Week
The serum results are a better indicator of bioavailability than the macular pigment results. It is well established that some subjects are serum responders, but macular pigment non-responders. However in this evaluation the Micro-Mic™ group mean MPOD (Macular Pigment Optical Density) exceeds that of the crystalline Lutein subjects by approximately 14%.

[2] = Serum Lutein concentration by HPLC during 24 weeks of daily capsule ingestion (bioavailability evaluation); format: in vivo
Method: The evaluation was carried out over a period of 24 weeks with three (3) groups of subjects that ingested daily one gelatin capsule containing the following: • The first group ingested a capsule containing a dispersion of 20 mg of Micro-Mic™ in vegetable oil. • The second group ingested a gelatin capsule containing a dispersion of 20 mg of commercial crystalline Lutein dispersed in vegetable oil. • The third group ingested a gelatin capsule containing only vegetable oil (placebo). The three gelatin capsules were all the same color (dark brown). Blood samples were collected weekly and the serum analyzed for Lutein by HPLC, and the concentration was reported as (ng/ul) of Lutein The results obtained are shown for Baseline date, week 6th, week 12^t1, week 18th, and week 24th. The ratio between the concentrations at each week was divided by the Baseline concentration. The average of those ratios is reported at the base of each column.

## CC1=C[C@H](O)CC(C)(C)[C@H]1/C=C/C(C)=C/C=C/C(C)=C/C=C/C=C(C)/C=C/C=C(C)/C=C/C1=C(C)C[C@@H](O)CC1(C)C [Lutein]
[1]; group maximum
  Rate of Increase in MPOD, Max: 5.100E−03 Absorbance Units Per Week
[1]; group mean
  Rate of Increase in MPOD, Mean: 1.690E−03 Absorbance Units Per Week
[1]; group median
  Rate of Increase in MPOD, Median: 1.550E−03 Absorbance Units Per Week
[1]; group minimum
  Rate of Increase in MPOD, Min: −8.000E−04 Absorbance Units Per Week
[2]; average of the subjects' ratios, week 6
  Week 6/Baseline, group average: 4.964
[2]; average of the subjects' ratios, week 12
  Week 12/Baseline, group average: 4.492
[2]; average of the subjects' ratios, week 18
  Week 18/Baseline, group average: 4.345
[2]; average of the subjects' ratios, week 24
  Week 24/Baseline, group average: 3.931
[2]; average of the subjects' ratios, weeks 6-24
  Week 6-24/Baseline, group average: 4.433
[2]; human, serum, oral, 20 mg, serum, group average, week 6, 20 mg daily capsule in vegetable oil, read-out: Week 6 Lutein Conc. B, group average
  concentration at 6 weeks: 632 ng/mL
[2]; human, serum, oral, 20 mg, serum, group average, week 12, 20 mg daily capsule in vegetable oil, read-out: Week 12 Lutein Conc. C, group average
  concentration at 12 weeks: 577 ng/mL
[2]; human, serum, oral, 20 mg, serum, group average, week 18, 20 mg daily capsule in vegetable oil, read-out: Week 18 Lutein Conc. D, group average
  concentration at 18 weeks: 545 ng/mL
[2]; human, serum, oral, 20 mg, serum, group average, week 24, 20 mg daily capsule in vegetable oil, read-out: Week 24 Lutein Conc. E, group average
  concentration at 24 weeks: 458 ng/mL
[2]; ratio of serum Lutein conc., individual subject, week 6
  Week 6/Baseline: 3.934 and 4.235 and 3.335 and 4.201 and 5.425 and 2.914 and 8.047 and 8.611 and 2.624 and 6.314
[2]; ratio of serum Lutein conc., individual subject, week 12
  Week 12/Baseline: 4.398 and 3.871 and 2.494 and 5.926 and 5.242 and 4.491 and 3.439 and 5.491 and 3.867 and 5.704
[2]; ratio of serum Lutein conc., individual subject, week 18
  Week 18/Baseline: 3.608 and 2.273 and 2.296 and 4.321 and 11.494 and 2.395 and 3.171 and 7.268 and 2.283 and 4.335
[2]; ratio of serum Lutein conc., individual subject, week 24
  Week 24/Baseline: 2.721 and 1.327 and 1.910 and 8.589 and 4.965 and 2.051 and 2.296 and 5.931 and 4.958 and 4.563
[2]; ratio of serum Lutein conc., individual subject, weeks 6-24
  Week 6-24/Baseline: 3.665 and 2.927 and 2.509 and 5.759 and 6.782 and 2.963 and 4.238 and 6.825 and 3.433 and 5.229
[2]; serum, group average, baseline, group later given 20 mg daily capsule
  Baseline Lutein Conc. A, group average: 0.128 ng/µL
[2]; serum, individual subject, baseline, group later given 20 mg daily capsule
  Baseline Lutein Conc. A: 0.268 ng/ul and 0.108 ng/ul (3×) and 0.112 ng/ul and 0.063 ng/ul and 0.151 ng/ul and 0.119 ng/ul and 0.082 ng/ul and 0.164 ng/ul
[2]; serum, individual subject, week 6, 20 mg daily capsule in vegetable oil
  Week 6 Lutein Conc. B: 1.054 ng/µL and 0.457 ng/µL and 0.372 ng/µL and 0.265 ng/µL and 0.584 ng/µL and 0.439 ng/µL and 0.867 ng/µL and 1.028 ng/µL and 0.215 ng/µL and 1.035 ng/µL
[2]; serum, individual subject, week 12, 20 mg daily capsule in vegetable oil
  Week 12 Lutein Conc. C: 1.179 ng/µL and 0.418 ng/µL and 0.278 ng/µL and 0.373 ng/µL and 0.564 ng/µL and 0.677 ng/µL and 0.370 ng/µL and 0.655 ng/µL and 0.317 ng/µL and 0.935 ng/µL
[2]; serum, individual subject, week 18, 20 mg daily capsule in vegetable oil
  Week 18 Lutein Conc. D: 0.967 ng/µL and 0.246 ng/µL and 0.256 ng/µL and 0.272 ng/µL and 1.238 ng/µL and 0.361 ng/µL and 0.341 ng/µL and 0.867 ng/µL and 0.187 ng/µL and 0.711 ng/µL
[2]; serum, individual subject, week 24, 20 mg daily capsule in vegetable oil
  Week 24 Lutein Conc. E: 0.729 ng/µL and 0.143 ng/µL and 0.213 ng/µL and 0.541 ng/µL and 0.535 ng/µL and 0.309 ng/µL and 0.247 ng/µL and 0.708 ng/µL and 0.407 ng/µL and 0.748 ng/µL
